What was measured:
GS-7340 ester hydrolase = target: T1, GS-7340 ester hydrolase (Homo sapiens, UniProt P10619); assay: biochemical
T1 construct: Fresh human PBMCs are obtained from patients undergoing leukophoresis; from tissue; host or cells: human peripheral blood mononuclear cells (PBMC extract, purified by Q15, Butyl Sepharose HIC and Con A chromatography)
T1 sequence (P10619 29-326 limits assumed): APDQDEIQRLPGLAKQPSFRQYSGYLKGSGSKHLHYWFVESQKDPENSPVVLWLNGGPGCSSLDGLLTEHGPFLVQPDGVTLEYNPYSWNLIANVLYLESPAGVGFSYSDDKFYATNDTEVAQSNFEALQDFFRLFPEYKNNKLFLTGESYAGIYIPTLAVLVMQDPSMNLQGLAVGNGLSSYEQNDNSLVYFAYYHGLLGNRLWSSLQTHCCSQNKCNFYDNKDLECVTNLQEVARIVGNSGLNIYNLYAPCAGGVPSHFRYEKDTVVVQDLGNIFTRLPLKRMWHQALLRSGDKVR
T1 sequence (P10619 327-480 limits assumed): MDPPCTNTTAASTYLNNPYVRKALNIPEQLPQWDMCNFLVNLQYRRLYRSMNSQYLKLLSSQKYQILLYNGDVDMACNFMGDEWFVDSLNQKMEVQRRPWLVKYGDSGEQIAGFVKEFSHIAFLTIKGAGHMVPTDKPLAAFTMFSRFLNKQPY

[1] = tested on: Cat A+ and Cat A- human primary fibroblasts; assay: Metabolism of acyclic nucleotide phosphonate prodrugs in Cat A+/- fibroblasts; conditions: 10 μM 14C-labeled Compound K, 37° C., 15-240 min

Compound | IC50 (GS-7340 ester hydrolase) | concentration of metabolites in Cat A+ control fibroblasts relative to Cat A- (galactosialidosis) fibroblasts [1]
O=c1oc(Cl)c(Cl)c2ccccc12 [3,4-dichloroisocoumarin, 3,4 dichloroisocoumarin] | 500 nM | –
C=C(OC(C)C)[C@H](C)N[P@](=O)(CO[C@H](C)Cn1cnc2c(C)ncnc21)Oc1ccccc1 [Compound K] | – | 6-9 times

From US7273716B2 (priority 2003, dated 2007)
